What all share (assay): KINOMEscan (ScanMAX) kinase profiling
Holding throughout (assay type): binding

Assay [1] has as its target T1, panel of 468 kinases (Homo sapiens, UniProt Q9UKI8).
T1 construct: purchased KINOMEscan (ScanMAX) service
T1 sequence (Q9UKI8 1-766): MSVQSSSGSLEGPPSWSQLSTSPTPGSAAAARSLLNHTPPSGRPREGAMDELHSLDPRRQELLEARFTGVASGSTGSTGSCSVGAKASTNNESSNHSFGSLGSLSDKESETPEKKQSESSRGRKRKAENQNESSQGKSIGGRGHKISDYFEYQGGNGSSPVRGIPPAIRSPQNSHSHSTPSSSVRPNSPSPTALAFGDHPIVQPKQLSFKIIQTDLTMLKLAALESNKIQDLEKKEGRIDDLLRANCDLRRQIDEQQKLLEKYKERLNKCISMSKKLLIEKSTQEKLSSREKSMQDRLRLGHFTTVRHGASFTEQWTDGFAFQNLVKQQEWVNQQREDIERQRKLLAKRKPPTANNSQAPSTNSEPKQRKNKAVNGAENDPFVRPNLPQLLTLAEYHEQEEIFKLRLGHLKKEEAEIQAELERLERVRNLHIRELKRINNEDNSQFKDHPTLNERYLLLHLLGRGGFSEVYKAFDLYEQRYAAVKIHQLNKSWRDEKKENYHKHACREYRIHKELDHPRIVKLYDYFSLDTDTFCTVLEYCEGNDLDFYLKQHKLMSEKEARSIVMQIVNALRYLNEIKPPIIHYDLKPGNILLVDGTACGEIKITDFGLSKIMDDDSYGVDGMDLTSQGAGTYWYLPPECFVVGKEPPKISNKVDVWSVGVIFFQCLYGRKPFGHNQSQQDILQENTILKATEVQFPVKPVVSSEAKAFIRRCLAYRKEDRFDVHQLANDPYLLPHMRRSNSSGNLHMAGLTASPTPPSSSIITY
The conditions noted are these: TLK1; 1 μM; read-out: % control.

Assay [2] addresses T2, panel of 468 kinases (Homo sapiens, UniProt Q9UIK4).
T2 construct: purchased KINOMEscan (ScanMAX) service
The conditions noted are these: DAPK2; 1 μM; read-out: % control.

Assay [3] addresses T3, panel of 468 kinases (Homo sapiens, UniProt P42681).
T3 construct: purchased KINOMEscan (ScanMAX) service
T3 sequence (P42681 1-527): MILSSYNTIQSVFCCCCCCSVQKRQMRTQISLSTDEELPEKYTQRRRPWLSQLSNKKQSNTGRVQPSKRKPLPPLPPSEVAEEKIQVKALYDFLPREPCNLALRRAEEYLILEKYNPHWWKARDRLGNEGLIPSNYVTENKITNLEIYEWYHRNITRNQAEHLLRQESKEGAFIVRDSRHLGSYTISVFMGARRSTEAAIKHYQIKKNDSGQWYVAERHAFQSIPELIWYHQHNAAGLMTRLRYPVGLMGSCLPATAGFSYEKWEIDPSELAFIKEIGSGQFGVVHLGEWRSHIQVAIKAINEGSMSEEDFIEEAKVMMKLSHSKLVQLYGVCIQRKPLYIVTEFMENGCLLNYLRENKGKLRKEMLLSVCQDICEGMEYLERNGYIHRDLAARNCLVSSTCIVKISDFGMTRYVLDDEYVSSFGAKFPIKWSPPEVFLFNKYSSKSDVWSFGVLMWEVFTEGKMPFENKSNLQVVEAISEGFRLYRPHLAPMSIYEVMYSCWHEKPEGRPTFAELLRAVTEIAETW
The conditions noted are these: TXK; 1 μM; read-out: % control.

In assay [4] the target is T4, panel of 468 kinases (Homo sapiens, UniProt O00444).
T4 construct: purchased KINOMEscan (ScanMAX) service
T4 sequence (O00444 1-970): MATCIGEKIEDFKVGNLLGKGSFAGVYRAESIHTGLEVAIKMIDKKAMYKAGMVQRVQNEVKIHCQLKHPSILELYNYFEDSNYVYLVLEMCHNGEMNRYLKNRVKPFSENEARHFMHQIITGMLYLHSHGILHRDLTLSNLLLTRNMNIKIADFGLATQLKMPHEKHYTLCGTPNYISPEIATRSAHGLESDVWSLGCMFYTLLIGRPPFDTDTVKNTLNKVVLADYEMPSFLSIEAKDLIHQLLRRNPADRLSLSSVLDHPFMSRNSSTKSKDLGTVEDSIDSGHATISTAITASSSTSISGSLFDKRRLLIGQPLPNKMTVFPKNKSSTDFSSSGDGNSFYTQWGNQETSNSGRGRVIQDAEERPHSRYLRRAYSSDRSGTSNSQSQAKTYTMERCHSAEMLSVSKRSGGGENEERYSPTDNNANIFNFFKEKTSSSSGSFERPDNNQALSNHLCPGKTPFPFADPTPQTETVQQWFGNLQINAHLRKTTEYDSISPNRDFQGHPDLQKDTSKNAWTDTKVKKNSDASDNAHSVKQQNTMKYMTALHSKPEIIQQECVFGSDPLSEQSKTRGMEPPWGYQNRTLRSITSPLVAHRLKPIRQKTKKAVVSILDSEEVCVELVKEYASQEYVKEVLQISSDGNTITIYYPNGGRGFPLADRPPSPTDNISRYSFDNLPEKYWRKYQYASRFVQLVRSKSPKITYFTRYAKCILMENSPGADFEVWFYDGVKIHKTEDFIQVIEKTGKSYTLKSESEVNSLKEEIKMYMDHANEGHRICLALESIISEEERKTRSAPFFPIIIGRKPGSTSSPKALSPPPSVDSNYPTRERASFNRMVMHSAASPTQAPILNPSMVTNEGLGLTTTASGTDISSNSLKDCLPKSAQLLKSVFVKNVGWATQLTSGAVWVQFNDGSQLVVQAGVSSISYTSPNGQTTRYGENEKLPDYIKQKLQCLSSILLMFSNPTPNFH
The conditions noted are these: PLK4; 1 μM; read-out: % control.

T2 sequence (Q9UIK4 whole entry): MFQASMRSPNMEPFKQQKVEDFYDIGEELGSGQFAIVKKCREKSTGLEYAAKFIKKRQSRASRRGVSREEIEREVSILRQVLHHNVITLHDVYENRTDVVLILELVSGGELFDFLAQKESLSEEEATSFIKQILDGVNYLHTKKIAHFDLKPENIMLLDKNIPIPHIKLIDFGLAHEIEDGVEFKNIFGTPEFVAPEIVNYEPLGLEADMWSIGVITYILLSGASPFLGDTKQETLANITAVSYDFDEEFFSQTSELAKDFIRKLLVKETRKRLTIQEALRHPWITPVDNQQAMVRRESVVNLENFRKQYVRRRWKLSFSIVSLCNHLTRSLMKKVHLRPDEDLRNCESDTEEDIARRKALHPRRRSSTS

With `CNc1nc(Nc2ccc(C(=O)N3CCC(N4CCOCC4)CC3)c3c2OCO3)nc2[nH]cc(Cl)c12` [Compound 75, (7-((5-chloro-4-(methylamino)-7H-pyrrolo[2,3-d]pyrimidin-2-yl)amino)benzo[d][1,3]dioxol-4-yl)(4-morpholinopiperidin-1-yl)methanone], the remaining binding at 1 µM was found to be 86% in assay [1], 28% in assay [2], 87% in assay [3] and 9.6% in assay [4].

For `CNc1nc(Nc2ccc(P3(=O)CCN(C4CCOCC4)CC3)cc2OC)nc2[nH]cc(Cl)c12` [Compound 77, 4-(4-((5-chloro-4-(methylamino)-7H-pyrrolo[2,3-d]pyrimidin-2-yl)amino)-3-methoxyphenyl)-1-(tetrahydro-2H-pyran-4-yl)-1,4-azaphosphinane 4-oxide], the remaining binding at 1 µM in assay [1] was 96%; in assay [2], 10%; in assay [3], 98%; in assay [4], 15%.

As to `CNc1nc(Nc2ccc(S(=O)(=O)N3CCC(N4CCOCC4)CC3)cc2OC)nc2[nH]cc(Cl)c12` [Compound 12, 5-chloro-N2-(2-methoxy-4-((4-morpholinopiperidin-1-yl)sulfonyl)phenyl)-N4-methyl-7H-pyrrolo[2,3-d]pyrimidine-2,4-diamine], the remaining binding at 1 µM is 89% in assay [1], 29% in assay [2], 100% in assay [3] and 22% in assay [4].

The values are drawn from patent US12479847B2 (DANA-FARBER CANCER INSTITUTE, INC., priority 2019, dated 2025).
